Data reported in US20090280060A1, “PHOTOCHROMIC PROBES” (priority 2004, published 2009).

Legend:
[1] = system: fertilized xenopus oocytes; assay: Cell division in microinjected fertilized xenopus oocytes; type: in vivo; settings: microinjection at the 4 cell stage
Protocol: Light directed activation of constitutively active caged cofilin. Caged cofilin (constitutively active S3A) was prepared independently of Ghosh et al (2004) using our standard NVOC-Cl approach (Marriott, 1994) that is described above for caged CapG. […] Oocytes were microinjected with caged fluorescein dextran (Molecular Probes) and concentrated caged cofilin (5 mg/ml) at the 4 cell stage—we estimate that the intracellular concentration of cofilin is the two injected cells is between 30˜50 μM. Irradiation of all four cells in the embryo with 365 nm light for 2 seconds generated fluorescein and green fluorescence, and by implication cofilin, from their caged precursors in the two injected cells. […] We conclude from these studies that the increased concentration of cofilin generated by uncaging inhibits actin filament dynamics and cytokinesis (Bamburg, 1999).

[2] = molecular target: T1, G-actin (Oryctolagus cuniculus, UniProt P68135); assay: Fluorescence excitation and emission spectra of G-actin conjugates; type: physicochemical, Rabbit; set-up: Rabbit muscle G-actin was purified according to Marriott; from tissue; host or cells: rabbit muscle; settings: for MC emission maximum of G-actin conjugate: excitation wavelength of 370 nm
Excerpt: FIG. 3. (A), Technical fluorescence excitation spectrum of the G-actin conjugate of compound 12, showing the S0-S2 (centered at 370 nm) and S0-S1 (centered at 558 nm) excitation bands of MC. The emission was monitored at an emission wavelength of 650 nm. (B), Normalized, technical emission spectra of G-actin conjugates of compounds: a), 3 (624 nm); b), 12 (622 nm); c), 6 (628 nm); d), 13 (630 nm). The emission from the MC state in each conjugate was generated using an excitation wavelength of […].
(§1) MATERIALS AND METHODS. Instrumentation. ^1H NMR spectra were measured on a Brucker Ac 300 MHz; mass spectra were carried out on a Micromass AutoSpec for EI, a Micromass LCT for ESI, or a Bruker REFLEX II for MALDI. Absorption spectra were recorded on a Hewlett-Packard 82152 diode array spectrophotometer or a Shimadzu 1601 PC instrument. Fluorescence spectroscopy was performed on an SLM-AB2 instrument (Thermoelectron, Madison, Wis.) or an ISS PC1 (Champaign, Ill.). Light-directed switching of the probes described in this work was achieved by irradiating the sample (120-1000 μL) with the 365 nm or 546 nm lines of a 100 W Hg-arc lamp (Zeiss).
Further information on MC-solvent interactions can be derived from studying the fluorescence properties of MC. From a practical standpoint, fluorescence from ^1MC* is best studied by exciting the spirobenzopyran with mid-ultraviolet light (S0-S2 transition)—this condition maintains a uniform population of MC excited state molecules (see Jablonski diagram, FIG. 4A). Contrary to the ground state studies, the inventors find that the average energy of the MC fluorescence is insensitive to the solvent (water, 2-propanol, 1,2-propanediol and acetonitrile; data not shown) and to the location of MC probe on G-actin (FIG. 3B).

[3] = molecular target: BSA (Bos taurus, UniProt P02769); assay: Absorption spectra of MC probes attached to a cysteine residue on BSA; type: physicochemical; settings: MC state, probe attached to a cysteine residue on BSA
Protocol: BSA: BSA conjugates of the spirobenzopyran reagents were prepared in a similar fashion to that described for G-actin yielding similar labeling ratios (FIG. 5C). The absorption spectrum of the five MC probes attached to a cysteine residue on BSA are centered at 544.5 nm (18,365 cm^−1) for compound 6,534 nm ([…]) for compound 12, 520 nm (19,231 cm^−1) for compounds 9; 503.5 nm (19,861 cm^−1) for compound 13. The difference in the energy of the absorption bands for these conjugates of 1496 cm^−1 is a little less than that found between the same probes on G-actin but again is significant in terms of the free energy of complex formation between BSA and its ligands. These confirm the conclusion that the protein matrix is made up of a complex dipolar landscape.

[4] = molecular target: T1, G-actin; assay: Absorption spectra of MC state of probes attached to cysteine-374 on G-actin; type: physicochemical, Rabbit; set-up: Rabbit muscle G-actin was purified according to Marriott; from tissue; host or cells: rabbit muscle; settings: probe attached to cysteine-374 of G-actin
Protocol: as §1
Rabbit muscle G-actin was purified according to Marriott^14 in G-buffer (2 mM Tris, 0.2 mM CaCl2, and 0.2 mM ATP at pH 8.0). The concentration of G-actin was determined by absorption spectroscopy using an extinction coefficient of 3400 M^−1 cm^−1 at 290 nm^14. 1 ml of a 20 μM solution of G-actin was treated with 20 μL of a 10 mM DMF stock solution of each thiol reactive, spirobenzopyran probe. The reaction mixture was left in the dark for 2 hours at room temperature. The protein was centrifuged for 10 min at 2000 g at 4° and applied to a Bio-Rad PD-10 column equilibrated in G-buffer containing 1 mM DTT. […]
G-Actin: The reaction between a ten-fold molar excess of thiol reactive, spirobenzopyran reagents and 20 μM G-actin at 20° is complete within 2 hours. The concentration of spirobenzopyran in each conjugate is determined from the value of the absorption maximum of the SP form of G-actin conjugates using an extinction coefficient of 35,000 M^−1cm^−1 at 350 nm^15 (FIG. 5A) The absorption spectra of the MC and SP states are not affected by the labeling ratio (spirobenzopyran/G-actin, which varies from 0.6 to 0.8 within the different conjugates. Cysteine-374 is located at an important site on G-actin and has been implicated in several important interactions of actin that include protomer-contacts within F-actin^23, the binding of the actin filament capping proteins Gelsolin and CapG^24 and the motor protein, myosin II^25. […]

[5] = molecular target: T2, F-actin (Oryctolagus cuniculus, UniProt P68135); assay: Prodan-F-actin depolymerization kinetics after dilution; type: biochemical; settings: Prodan actin emission ratio 465/502 nm, dilution below the critical concentration
T2 construct: Rabbit muscle G-actin is purified according to Marriott (1994); from tissue; host or cells: rabbit muscle

[6] = G-actin conjugate, emission monitored at 650 nm

Chain of BSA (P02769 25-607): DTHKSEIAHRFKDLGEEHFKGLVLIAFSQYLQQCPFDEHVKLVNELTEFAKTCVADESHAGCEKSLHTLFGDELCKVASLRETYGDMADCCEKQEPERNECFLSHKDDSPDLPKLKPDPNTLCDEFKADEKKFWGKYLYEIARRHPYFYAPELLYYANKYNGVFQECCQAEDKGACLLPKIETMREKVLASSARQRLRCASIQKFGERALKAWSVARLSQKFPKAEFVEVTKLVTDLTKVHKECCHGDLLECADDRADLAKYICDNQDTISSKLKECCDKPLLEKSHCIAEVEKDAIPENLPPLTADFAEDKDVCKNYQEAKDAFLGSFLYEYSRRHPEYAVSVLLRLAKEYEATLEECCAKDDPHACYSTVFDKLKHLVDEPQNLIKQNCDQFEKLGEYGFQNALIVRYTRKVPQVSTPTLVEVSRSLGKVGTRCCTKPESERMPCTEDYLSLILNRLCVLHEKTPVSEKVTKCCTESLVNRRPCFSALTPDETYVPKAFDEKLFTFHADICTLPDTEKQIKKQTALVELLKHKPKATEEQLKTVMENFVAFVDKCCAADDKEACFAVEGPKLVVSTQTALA

wild type cofilin: wild type cofilin, inactivated by phosphorylation at Ser-3
effect on cell division / cytokinesis [1]: no effect on cell division

8-(Iodomethyl)spirobenzopyran [compound 3]
MC emission maximum of G-actin conjugate [2]: 624 nm

6′-(Bromomethyl)spirobenzopyran [compound 13]
MC absorption spectrum centre on BSA [3]: 503.5 nm
MC emission maximum of G-actin conjugate [2]: 630 nm
MC absorption maximum on G-actin [4]: 551.5 nm

CC1(C)c2ccccc2N(CCN2C(=O)C=CC2=O)C12C=Cc1cc([N+](=O)[O-])ccc1O2 (stereo not shown) [compound 6, 1′-(Maleimidoethyl)spirobenzopyran]
MC absorption spectrum centre on BSA [3]: 544.5 nm
MC emission maximum of G-actin conjugate [2]: 628 nm

6′-(Maleimidomethyl)spirobenzopyran [compound 12]
S0-S1 excitation band of MC, centre [2, 6]: 558 nm
S0-S2 excitation band of MC, centre [2, 6]: 370 nm
MC emission maximum of G-actin conjugate [2]: 622 nm
MC absorption maximum on G-actin [4]: 551.5 nm

4′-(Bromomethyl)spirobenzopyran [compound 9]
MC absorption spectrum centre on BSA [3]: 520 nm
MC absorption maximum on G-actin [4]: 500 nm

B1: Constitutively active cofilin: constitutively active S3A cofilin (protein, UniProt P23528 2-166, looked up, variant S3A)
Cofilin-1: AAGVAVSDGVIKVFNDMKVRKSSTPEEVKKRKKAVLFCLSEDKKNIILEEGKEILVGDVGQTVDDPYATFVKMLPDKDCRYALYDATYETKESKKEDLVFIFWAPESAPLKSKMIYASSKDAIKKKLTGIKHELQANCYEEVKDRCTLAEKLGGSAVISLEGKPL
effect on cell division / cytokinesis [1]: inhibited cytokinesis
effect on rate of F-actin depolymerization [5]: increases the rate of F-actin depolymerization

B2: Uncaged cofilin: caged cofilin after light-directed uncaging (protein, UniProt P23528 2-166, looked up, variant S3A)
Cofilin-1: B1 Cofilin-1
modifications: uncaged after photolysis
notes: caged cofilin after light-directed uncaging
effect on rate of F-actin depolymerization [5]: restores a substantial fraction of the cofilin activity

B3: caged cofilin: constitutively active S3A cofilin caged with 3-5 NVOC groups by the NVOC-Cl approach (protein, UniProt P23528 2-166, looked up, variant S3A)
Cofilin-1: B1 Cofilin-1
modifications: caged with 3-5 NVOC groups
effect on cell division / cytokinesis [1]: failed to undergo further divisions
effect on cell division / cytokinesis ([1]; listed as caged constitutively active cofilin): inhibits cytokinesis
effect on rate of F-actin depolymerization [5]: did not accelerate the rate of F-actin depolymerization
